These results are taken from paper PMC4752739, “Functional structure and antimicrobial activity of persulcatusin, an antimicrobial peptide from the hard tick Ixodes persulcatus” (Parasites & Vectors, 2016).

Where a SMILES comes first, the peptide text is derived from it. Bridges are numbered along the chain shown (N, C = ends).

Series [1] concerns BFFs-NCC1. The series can be described thus: Neutral comet assay, fibroblasts. It counts as cell-based, bovine. Conditions: neutral conditions. As for the experimental part: (§1) We prepared BFFs-NCC1 and BFCEs-K4DT treated or untreated with IP 50 μg/mL for 48 h as above experiment. These cells were harvested by centrifugation (800 g, 3 min) and washed with sterile Dulbecco’s Phosphate Buffered Saline (DPBS; GIBCO). To generate positive control for comet tails, a part of each cell is untreated with IP treated 25 μM KMnO4, and all samples placed for 20 min at 4 °C. The comet assay was performed under neutral conditions following the Trevigen protocol. Each cell at 1 × 10^5 cell/mL was combined with molten low-melting agarose at a ratio of 1 : 10 (vol /vol) and immediately pipetted 50 μL onto Comet slides. Slides were stored in the dark for 30 min at 4 °C before immersing in lysis solution overnight. The slides were immersed in freshly prepared neutral electrophoresis buffer (dissolved Tris base and sodium acetate in distilled water, pH 9.0) for 30 min at 4 °C. Gel electrophoresis was performed at 1 volt per cm (measured electrode to electrode) for 45 min in neutral electrophoresis buffer. The comet slides were immersed in DNA precipitation solution (7.5 M ammonium acetate containing 95 % ethanol) for 30 min at room temperature and then in 70 % ethanol for 30 min at room temperature. […] The slides were observed by fluorescence microscopy FSX100 (Olympus, Tokyo, Japan).

Series [2] deals with BFCEs-K4DT. The series can be described thus: Neutral comet assay, colon epithelial cells. Format: cell-based, bovine. Conditions: neutral conditions. As to the method: as §1
The subject of series [3] is MRSA. Particulars: cited from earlier work. An excerpt:
Host cytotoxicity of AMPs is a major limitation in their application as antimicrobial drugs. […] Not only that, but DNA damage was not detected in each cell treated with IP in neutral comet assay (Fig. 6). […] Moreover, in the hemolytic assay, we observed minimal hem ... || Treating MRSA infection is challenging owing to the remarkable ability of S. aureus to develop resistance to multiple antibiotics, thus limiting the number of viable therapeutic options. New anti-MRSA drugs called DAP were developed recently, but DAP-resistant bacteria have already been reported. Therefore, there is an urgent need to develop novel antimicrobials with unique mechanisms of action to combat MRSA, one of which is AMP [4]. It has been reported that tick AMP derived from Ornithodoros moubata, with an amino acid sequence similar to that of OMBAC (91 %) (Table 2) ...

Series [4] concerns MRSA. Briefly: Short-time killing assay, MRSA. Conditions: 1 h at 37 °C. It counts as cell-based, Staphylococcus aureus. As for the experimental part: (§2) We selected 3 strains each of MSSA and MRSA used in the growth inhibition test. Unlike the growth inhibition test described above, an additional growth inhibition test was conducted using small test tubes. Each mixture of bacteria and peptide solution was incubated for 1 h at 37 °C. After the incubation, 100 μL aliquots were removed from the tubes and inoculated on TS agar plates. The plates were incubated overnight at 37 °C, after which colonies were counted. The same control was prepared as in the growth inhibition test described above. The data were then converted and expressed as a percentage (sample per control).

In series [5] the test system is bovine fetal fibroblasts (BFFs-NCC1). The series can be described thus: Effect on mammalian cell growth, fibroblasts. It counts as cell-based. Conditions: 50 μg/mL, 24 h or 48 h, trypan blue staining, automatic cell counter; triplicate. As for the experimental part: (§3) In this study, we used bovine fetal fibroblasts (BFFs-NCC1) and bovine fetal colon epithelial cells (BFCEs-K4DT), which were maintained in the Laboratory of Animal Breeding and Genetics, Tohoku University Graduate School of Agricultural Science. The BFFs-NCC1 and BFCEs-K4DT were cultured in a cell culture dish and wrapped 12-well plates. The nutrient medium of each cell was Dulbecco’s modified Eagle’s medium (DMEM; Nacalai Tesque, Kyoto, Japan or Mediatech, Inc, Manassas, VA, USA) containing 10 % fetal bovine serum (Invitrogen, Carlsbad, CA, USA) and a 1 % antibiotic-antimycotic mixed stock solution (Nacalai Tesque). Then each cell was seeded into 12-well plates at 1 × 10^4 cell/well and 1 × 10^5 cell/well. After overnight incubation, the nutrient mediums were changed to DMEM with IP (0, 5, 10, 50 μg/mL), and cells were incubated for 24 h or 48 h (BFCEs-K4DT only 48 h) at 37 °C. Then, these were collected and measured using a trypan blue staining method, with an EVE™ Automatic cell counter (NanoEnTeK, Seoul, Korea). For BFCEs-K4DT, the morphology of untreated control (IP 0 μg/mL) and treated cell (IP 50 μg/mL) was observed.

Series [6] relates to MSSA. Briefly: Short-time killing assay, MSSA. Particulars: 1 h at 37 °C; for Susceptibility in short-time killing assay: colony count, % of control, triplicate. Format: cell-based, Staphylococcus aureus. As for the experimental part: as §2
The test system of series [7] is methicillin-susceptible S. aureus (MSSA) clinical strains. The series can be described thus: Growth inhibition test (MIC), MSSA. Format: cell-based, Staphylococcus aureus. Conditions: all 9 clinical isolates of MSSA. As for the experimental part: (§4) In the growth inhibition test, we used 9 clinical strains of methicillin-susceptible S. aureus (MSSA) and 9 clinical strains of MRSA from patients in Jichi Medical University Hospital, using these strains in past report. The bacteria were grown in Trypto Soya (TS; Nissui, Tokyo, Japan) broth for 18–19 h at 37 °C.
(§5) The optical density at 660 nm (OD660) of pre-cultured bacteria was measured using an Ubest-35 (JASCO Corporation, Tokyo, Japan). The adjustment for an OD660 of 0.5 was conducted by adding TS broth. The bacteria were diluted to a final concentration of 1–5 × 10^4 colony forming units (CFUs) /mL with TS broth, after which 50 μL of bacterial suspension and 50 μL of peptide solution were mixed together in a 96-well plate. The peptide solution was prepared by two-fold dilution in TS broth, while the IP solution was prepared to final peptide concentrations of 40, 20, 10, 5, 2.5, 1.25, 0.625, 0.313, 0.157, and 0.079 μg/mL. Each mixture of bacteria and peptide solution was incubated at 37 °C. The OD660 of the cell suspension was measured after 20–24 h incubation by using a Synergy™ HT (BioTek, Winooski, VT, USA). A control was prepared by mixing 50 μL of bacterial suspension, 40 μL of TS broth, and 10 μL of HBSS. The minimal inhibitory concentration (MIC) of the peptides was defined as the lowest concentration of peptide that reduced growth by >90 %.

Series [8] concerns bovine fetal colon epithelial cells (BFCEs-K4DT). The series can be described thus: Effect on mammalian cell growth and morphology, colon epithelial cells. Format: cell-based. Particulars: 50 μg/mL, 48 h. As for the experimental part: as §3
The subject of series [9] is MRSA clinical strains. Briefly: Growth inhibition test (MIC), MRSA. It counts as cell-based, Staphylococcus aureus. Conditions: all 9 clinical isolates of MRSA. As for the experimental part:
as §4, §5

For series [10] the following is noted: cited from earlier work. An excerpt:
Host cytotoxicity of AMPs is a major limitation in their application as antimicrobial drugs. […] Not only that, but DNA damage was not detected in each cell treated with IP in neutral comet assay (Fig. 6). […] Moreover, in the hemolytic assay, we observed minimal hem ...

Setting [11] is: positive control, 25 μM, 20 min at 4 °C.

Consider `[K+].[O]=[Mn](=[O])(=[O])[O-]` [KMnO4, reference compound], for which the “DNA damage (comet tails)” value in [1] (setting [11]) and in [2] (setting [11]) was “some comet tails” throughout.

Take “GYGCPFNQYQCHSHCSGIRGYKGGYCKGTFKQTCKCY [(No use), 91 % similar to OMBAC]”: the “MIC against MRSA” value in series [3] was “low MIC”.

As usually defined, the MIC is the smallest concentration in the dilution series that meets the test's criterion for growth inhibition. As to `CC[C@H](C)[C@@H]1NC(=O)[C@H](CO)NC(=O)[C@H](CCCNC(=N)N)NC(=O)[C@@H]2CSSC[C@@H](C(=O)N[C@@H](Cc3ccc(O)cc3)C(=O)N[C@@H](CO)C(=O)N[C@@H](CCCNC(=N)N)C(=O)O)NC(=O)[C@H]([C@@H](C)O)NC(=O)[C@@H]3CSSC[C@H](NC(=O)[C@H](C)NC(=O)CNC(=O)[C@H](CCC(N)=O)NC(=O)[C@H](CC(N)=O)NC(=O)[C@H](Cc4ccccc4)NC(=O)[C@@H]4CCCN4C(=O)[C@@H](NC(=O)CNC(=O)[C@H](Cc4ccccc4)NC(=O)CN)CSSC[C@H](NC(=O)[C@H](Cc4ccc(O)cc4)NC(=O)CNC(=O)CNC(=O)[C@H](CCCNC(=N)N)NC(=O)[C@H](CCCNC(=N)N)NC(=O)CNC1=O)C(=O)N[C@@H](C)C(=O)NCC(=O)N[C@@H](CC(C)C)C(=O)N[C@@H](Cc1ccccc1)C(=O)N[C@@H](CCCCN)C(=O)N[C@@H](CCC(N)=O)C(=O)N[C@@H]([C@@H](C)O)C(=O)N3)C(=O)N[C@@H](Cc1c[nH]cn1)C(=O)N[C@@H](CCCNC(=N)N)C(=O)N[C@@H](Cc1c[nH]cn1)C(=O)N2` [IP, persulcatusin] (H-GFGCPFNQGACHRHCRSIGRRGGYCAGLFKQTCTCYSR-OH; disulfide 4-25, 11-33, 15-35 (inferred); N-terminus and C-terminus assumed), the “Bactericidal activity within 1 h” value in series [4] (MRSA) and in [6] (MSSA) was “dose-dependent bactericidal activity” in each case. Also, the “Susceptibility in short-time killing assay” value is “susceptible” in [4] (all MRSA strains (MR-1, 2, 3), colony count, % of control, triplicate); “susceptible” in [6] (strain MS-3); “relatively resistant” in series [6] (strains MS-1 and MS-2). Also, the “Number of cells after treatment” value in [5] was “no significant differences”; in series [8] (trypan blue staining, automatic cell counter, triplicate), “no significant differences”. Also, the “DNA damage (comet tails)” value in series [1] (50 μg/mL for 48 h) and in [2] (50 μg/mL for 48 h) was “no comet tails” in each case. Further, the “MIC at which growth of all 9 clinical isolates was inhibited” value in [7] turned out to be 1.25 mg/L; in [9] it was 2.5 mg/L. For the same compound, the “Cell morphology after treatment” value in [8] is recorded as “no morphological change”.

Turning to melittin, the Hemolytic activity result in [10] is recorded as “hemolytic activity”. The “Antimicrobial activity against MRSA” value in series [3] is listed as “antimicrobial activity against MRSA”.
